Data published in patent publication US20240263153A1, “INTEGRASE COMPOSITIONS AND METHODS” (Flagship Pioneering Innovations Vi, LLC, priority 2021, published 2024).

The molecules below were run on mouse liver (assay: LNP-mediated delivery of RNA to the mouse liver (luciferase activity of liver homogenate)). Details: C57BL6 male mice, i.v. 1 mg/kg, Firefly luciferase mRNA-LNPs, liver at 6, 24, 48 hours.
Assay type: in vivo
Protocol: To measure the effectiveness of LNP-mediated delivery of firefly luciferase containing particles to the liver, LNPs were formulated and characterized as described herein and tested in vitro prior to administration to mice. C57BL6 male mice (Charles River Labs) at approximately 8 weeks of age were dosed with LNPs via intravenous (i.v.) route at 1 mg/kg. Vehicle control animals were dosed i.v. with 300 μL phosphate buffered saline. Mice were injected via intraperitoneal route with dexamethasone at 5 mg/kg 30 minutes prior to injection of LNPs. Tissues were collected at necropsy at or 6, 24, 48 hours after LNP administration with a group size of 5 mice per time point. Liver and other tissue samples were collected, snap-frozen in liquid nitrogen, and stored at −80° C. until analysis.
Frozen liver samples were pulverized on dry ice and transferred to homogenization tubes containing lysing matrix D beads (MP Biomedical). Ice-cold 1× luciferase cell culture lysis reagent (CCLR) (Promega) was added to each tube and the samples were homogenized in a Fast Prep-24 5G Homogenizer (MP Biomedical) at 6 m/s for 40 seconds. The samples were transferred to a clean microcentrifuge tube and clarified by centrifugation. Prior to luciferase activity assay, the protein concentration of liver homogenates was determined for each sample using the Pierce™ BCA Protein Assay Kit (ThermoFisher Scientific) according to the manufacturer's instructions. Luciferase activity was measured with […] (total protein) of liver homogenate using the luciferase assay reagent (Promega) according to manufacturer's instructions using an i3X SpectraMax plate reader (Molecular Devices). […] Reporter activity by the various formulations followed the ranking LIPIDV005>LIPIDV004>LIPIDV003. RNA expression was transient and enzyme levels returned near vehicle background by 48 hours. Post-administration. This assay validated the use of these ionizable lipids and their respective formulations for RNA systems for delivery to the liver.

Row | Compound | luciferase reporter activity in liver samples
1 | CCCCC/C=C\C/C=C\CCCCCCCC(=O)OCC(COC(=O)CCC(OCCCCCCCC)OCCCCCCCC)COC(=O)OCCCN(CC)CC (stereo not drawn) [LIPIDV003, (9Z,12Z)-3-((4,4-bis(octyloxy)butanoyl)oxy)-2-((((3-(diethylamino)propoxy)carbonyl)oxy)methyl)propyl octadeca-9,12-dienoate] | LIPIDV005>LIPIDV004>LIPIDV003
2 | CCCCCCCC(=O)N(CCCN(C)C)C(CCCCCCCCC(=O)OC(CCCCCC)CCCCCC)CCCCCCCCC(=O)OC(CCCCCC)CCCCCC [LIPIDV005] | LIPIDV005>LIPIDV004>LIPIDV003
3 | CCCCCCCCCOC(=O)CCCCCCCN(CCO)CCCCCCCC(=O)OC(CCCCCCCC)CCCCCCCC [LIPIDV004, Heptadecan-9-yl 8-((2-hydroxyethyl)(8-(nonyloxy)-8-oxooctyl)amino)octanoate] | LIPIDV005>LIPIDV004>LIPIDV003
